Earlier results on one substance are cited in PMC8624105 (Viruses, 2021).

The data set relates to NHERF1 PDZ domains. The note with it: PDZ/PBM interaction.

For “ACE2: glycosylated integral membrane protein of 805 residues”, the interaction entry is recorded as “shown to interact with NHERF1 PDZ domains”.
